Assay results: patent US12606544B2, “JAK1 selective kinase inhibitor” (DIZAL (JIANGSU) PHARMACEUTICAL CO., LTD., priority 2019, dated 2026)

Assays:
phosphorylation of STAT6 = test: Cellular p-STAT6 assay, IL-13 stimulated THP-1 cells, flow cytometry; format: cell-based; conditions: Homo sapiens, THP-1, THP-1 cells, IL-13 10 ng/ml; read-out: pSTAT6 IC50
Procedure, shortened: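 THP-1 cells (2×10^5/well, RPMI1640 + 10% FBS) preincubated 60 min at room temperature with compound (1 μM to 0.3 nM), then stimulated 30 min with IL-13 at 10 ng/ml. Fixed, methanol-permeabilized cells stained with PE anti-pSTAT6 and read by flow cytometry; IC50 from dose-response curves.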

JAK2 = target: T1, JAK2 (Homo sapiens, UniProt O60674); test: Lance Ultra Kinase Assay, recombinant JAK2; format: biochemical; conditions: 5 mM ATP
T1 construct: purchased Carna Biosciences
Procedure, shortened: (§1)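 Each recombinant kinase preincubated with or without compound 15 min at room temperature, then reaction started with 5 mM ATP and substrate peptide for 60 min. Stopped with EDTA-containing detection mix; TR-FRET read at ex 320 nm, 665/615 nm emission ratio taken as kinase activity.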

[1] = Metabolic stability in rat hepatocytes; format: in vitro ADME; conditions: 1 μM compound, male rat hepatocytes
Method: (§2) Rat hepatocytes in male gender and human liver microsome were obtained from commercial vendors (e.g., BioreclamationIVT) and stored at −150° C. prior to use.
For metabolic stability assay with rat heptatocytes, vials of cryopreserved hepatocytes or microsome were removed from storage, ensured that vials remain at cryogenic temperatures. 1 μM of each test compound (in Acetonitrile; 0.01% DMSO) was incubated with 250 μL of hepatocyte cells (1×10^6 cells/ml) in a 96 deep well plate. […] 40 μL of supernatant was diluted to 200 μL with pure water and analyzed using LC-MS/MS.
In vitro hepatocyte clearance was estimated based on determination of elimination half-life (T1/2) of compounds disappearance from their initial concentrations. Peak area ratios of each compound (test or control) to IS was calculated. Ln (% Control) versus Incubation Time (min) curve was plotted, and the slope of a linear fitting line was calculated. Drug elimination rate constant k (min−1), T1/2 (min), and in vitro intrinsic clearance CLint (μL/min/E6) was calculated according to the following equations: k=−slope T1/2=0.693/k CLint=k/Chep Where Chep (cells×μL^−1) is the cell concentration in the incubation system.

TYK2 = target: T2, TYK2 (Homo sapiens, UniProt P29597); test: Lance Ultra Kinase Assay, recombinant TYK2; format: biochemical; conditions: 5 mM ATP
T2 construct: purchased Carna Biosciences
Procedure, shortened: as §1

JAK3 = target: T3, JAK3 (Homo sapiens, UniProt P52333); test: Lance Ultra Kinase Assay, recombinant JAK3; format: biochemical; conditions: 5 mM ATP
T3 construct: purchased Carna Biosciences
T3 sequence (P52333 1-1124): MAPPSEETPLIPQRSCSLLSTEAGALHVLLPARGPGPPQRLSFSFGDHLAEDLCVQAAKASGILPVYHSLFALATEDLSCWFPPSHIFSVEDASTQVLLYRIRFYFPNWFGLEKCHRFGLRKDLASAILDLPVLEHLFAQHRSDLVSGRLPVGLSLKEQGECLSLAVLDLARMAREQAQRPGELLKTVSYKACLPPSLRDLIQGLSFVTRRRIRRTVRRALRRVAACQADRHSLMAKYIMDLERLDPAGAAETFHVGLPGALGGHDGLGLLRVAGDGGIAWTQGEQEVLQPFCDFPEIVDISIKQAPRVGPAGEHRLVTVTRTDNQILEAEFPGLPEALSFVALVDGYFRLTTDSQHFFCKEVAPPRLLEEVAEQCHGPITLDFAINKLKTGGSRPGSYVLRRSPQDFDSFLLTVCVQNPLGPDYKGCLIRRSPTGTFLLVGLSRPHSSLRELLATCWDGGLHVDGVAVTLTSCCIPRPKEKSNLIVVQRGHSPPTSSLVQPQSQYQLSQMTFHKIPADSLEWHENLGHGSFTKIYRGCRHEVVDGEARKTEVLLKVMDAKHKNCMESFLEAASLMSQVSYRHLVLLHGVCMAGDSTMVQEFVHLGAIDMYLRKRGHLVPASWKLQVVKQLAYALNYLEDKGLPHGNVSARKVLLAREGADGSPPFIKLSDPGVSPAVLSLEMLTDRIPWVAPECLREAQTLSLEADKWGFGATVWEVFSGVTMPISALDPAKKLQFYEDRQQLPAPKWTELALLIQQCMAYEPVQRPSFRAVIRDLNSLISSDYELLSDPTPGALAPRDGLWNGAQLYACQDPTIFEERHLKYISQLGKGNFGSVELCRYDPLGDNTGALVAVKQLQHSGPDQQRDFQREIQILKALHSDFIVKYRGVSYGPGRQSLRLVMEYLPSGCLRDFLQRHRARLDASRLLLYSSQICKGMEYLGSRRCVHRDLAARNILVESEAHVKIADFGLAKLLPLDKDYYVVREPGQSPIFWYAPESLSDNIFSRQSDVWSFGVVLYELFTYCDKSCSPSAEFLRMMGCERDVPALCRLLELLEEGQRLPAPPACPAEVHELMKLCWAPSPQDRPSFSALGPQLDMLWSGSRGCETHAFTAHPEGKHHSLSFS
Procedure, shortened: as §1

JAK1 = target: T4, JAK1 (Homo sapiens, UniProt P23458); test: Lance Ultra Kinase Assay, recombinant JAK1; format: biochemical; conditions: 5 mM ATP
T4 construct: purchased Carna Biosciences
Procedure, shortened: as §1

[2] = Metabolic stability in human liver microsome; format: in vitro ADME; conditions: human, pooled human liver microsomes, pH 7.4, 1 μM compound, 1 mg/mL microsomes, NADPH
Method: as §2
For metabolic stability assay with human liver microsome, 1 μM of each test compound was incubated with 1 mg/mL of microsomes (Pooled HLM with 20 mg/ml protein cone) at 37° C. in 250 μL of buffer (100 mM phosphate buffer, pH-7.4) containing 1 mM NADPH solution. […] was quenched with 5 volumes chilled acetonitrile at different time points 0, 0.5, 5, 10, 15, 20 and 30 min in a fresh 96 well plate. The quench plate was centrifuged at 4000 rpm for 15 min. 40 μL of supernatant was diluted to 200 μL with pure water and analyzed using LC-MS/MS. […]

T1 sequence (O60674 whole entry): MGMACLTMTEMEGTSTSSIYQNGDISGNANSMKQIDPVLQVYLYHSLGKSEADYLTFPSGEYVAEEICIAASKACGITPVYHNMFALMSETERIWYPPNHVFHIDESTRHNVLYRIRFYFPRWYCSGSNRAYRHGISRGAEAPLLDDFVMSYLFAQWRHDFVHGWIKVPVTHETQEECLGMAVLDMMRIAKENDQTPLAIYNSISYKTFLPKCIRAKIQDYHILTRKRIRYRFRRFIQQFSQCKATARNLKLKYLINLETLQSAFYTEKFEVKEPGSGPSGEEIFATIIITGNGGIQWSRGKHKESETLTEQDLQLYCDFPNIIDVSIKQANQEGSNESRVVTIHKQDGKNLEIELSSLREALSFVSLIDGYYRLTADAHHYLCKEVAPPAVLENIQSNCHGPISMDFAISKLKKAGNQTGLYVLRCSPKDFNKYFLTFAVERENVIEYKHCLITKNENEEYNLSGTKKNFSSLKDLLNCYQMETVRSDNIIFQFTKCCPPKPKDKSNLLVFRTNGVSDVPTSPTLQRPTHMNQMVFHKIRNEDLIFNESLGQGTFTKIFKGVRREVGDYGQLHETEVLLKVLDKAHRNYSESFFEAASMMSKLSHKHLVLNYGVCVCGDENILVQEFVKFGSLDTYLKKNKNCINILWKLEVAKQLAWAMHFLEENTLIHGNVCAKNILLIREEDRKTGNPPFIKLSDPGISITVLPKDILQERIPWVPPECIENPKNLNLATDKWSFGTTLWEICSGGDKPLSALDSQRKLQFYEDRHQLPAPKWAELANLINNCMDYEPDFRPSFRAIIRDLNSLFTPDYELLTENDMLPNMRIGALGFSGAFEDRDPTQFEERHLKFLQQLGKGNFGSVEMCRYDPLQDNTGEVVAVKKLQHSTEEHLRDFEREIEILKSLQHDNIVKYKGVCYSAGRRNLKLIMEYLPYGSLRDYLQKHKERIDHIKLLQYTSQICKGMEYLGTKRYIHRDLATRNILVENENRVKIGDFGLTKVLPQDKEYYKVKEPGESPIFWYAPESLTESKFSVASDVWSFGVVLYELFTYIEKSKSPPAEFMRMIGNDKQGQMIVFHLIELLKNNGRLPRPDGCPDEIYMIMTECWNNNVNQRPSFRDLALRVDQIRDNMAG
T4 sequence (P23458 whole entry): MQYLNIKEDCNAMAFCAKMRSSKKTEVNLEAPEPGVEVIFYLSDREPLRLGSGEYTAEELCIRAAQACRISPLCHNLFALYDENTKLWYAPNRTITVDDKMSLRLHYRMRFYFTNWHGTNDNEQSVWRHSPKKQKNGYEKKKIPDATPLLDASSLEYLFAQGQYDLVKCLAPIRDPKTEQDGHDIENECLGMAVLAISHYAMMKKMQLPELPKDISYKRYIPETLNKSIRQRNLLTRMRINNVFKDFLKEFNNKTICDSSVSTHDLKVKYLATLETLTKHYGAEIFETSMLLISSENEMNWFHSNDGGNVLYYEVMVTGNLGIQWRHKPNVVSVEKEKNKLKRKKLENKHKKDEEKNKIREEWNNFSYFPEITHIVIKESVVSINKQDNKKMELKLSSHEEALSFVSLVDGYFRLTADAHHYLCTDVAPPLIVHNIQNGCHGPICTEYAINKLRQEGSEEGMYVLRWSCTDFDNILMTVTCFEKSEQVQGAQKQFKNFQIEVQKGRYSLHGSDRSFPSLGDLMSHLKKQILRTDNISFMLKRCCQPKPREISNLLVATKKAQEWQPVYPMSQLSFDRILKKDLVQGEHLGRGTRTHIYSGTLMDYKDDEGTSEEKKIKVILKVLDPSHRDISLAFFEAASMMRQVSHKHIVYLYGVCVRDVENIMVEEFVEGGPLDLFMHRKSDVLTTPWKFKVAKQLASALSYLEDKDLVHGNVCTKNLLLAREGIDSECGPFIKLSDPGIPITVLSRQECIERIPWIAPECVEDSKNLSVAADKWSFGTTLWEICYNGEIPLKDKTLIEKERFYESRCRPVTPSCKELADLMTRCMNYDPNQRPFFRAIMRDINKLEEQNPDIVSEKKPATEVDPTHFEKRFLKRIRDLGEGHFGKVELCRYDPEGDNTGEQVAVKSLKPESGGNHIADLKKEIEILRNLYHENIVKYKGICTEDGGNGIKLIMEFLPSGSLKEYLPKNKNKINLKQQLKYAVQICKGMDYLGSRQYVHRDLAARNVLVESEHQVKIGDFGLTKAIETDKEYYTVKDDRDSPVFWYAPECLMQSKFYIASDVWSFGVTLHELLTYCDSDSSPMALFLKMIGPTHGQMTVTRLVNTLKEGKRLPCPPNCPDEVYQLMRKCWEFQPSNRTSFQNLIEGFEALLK
T2 sequence (P29597 whole entry): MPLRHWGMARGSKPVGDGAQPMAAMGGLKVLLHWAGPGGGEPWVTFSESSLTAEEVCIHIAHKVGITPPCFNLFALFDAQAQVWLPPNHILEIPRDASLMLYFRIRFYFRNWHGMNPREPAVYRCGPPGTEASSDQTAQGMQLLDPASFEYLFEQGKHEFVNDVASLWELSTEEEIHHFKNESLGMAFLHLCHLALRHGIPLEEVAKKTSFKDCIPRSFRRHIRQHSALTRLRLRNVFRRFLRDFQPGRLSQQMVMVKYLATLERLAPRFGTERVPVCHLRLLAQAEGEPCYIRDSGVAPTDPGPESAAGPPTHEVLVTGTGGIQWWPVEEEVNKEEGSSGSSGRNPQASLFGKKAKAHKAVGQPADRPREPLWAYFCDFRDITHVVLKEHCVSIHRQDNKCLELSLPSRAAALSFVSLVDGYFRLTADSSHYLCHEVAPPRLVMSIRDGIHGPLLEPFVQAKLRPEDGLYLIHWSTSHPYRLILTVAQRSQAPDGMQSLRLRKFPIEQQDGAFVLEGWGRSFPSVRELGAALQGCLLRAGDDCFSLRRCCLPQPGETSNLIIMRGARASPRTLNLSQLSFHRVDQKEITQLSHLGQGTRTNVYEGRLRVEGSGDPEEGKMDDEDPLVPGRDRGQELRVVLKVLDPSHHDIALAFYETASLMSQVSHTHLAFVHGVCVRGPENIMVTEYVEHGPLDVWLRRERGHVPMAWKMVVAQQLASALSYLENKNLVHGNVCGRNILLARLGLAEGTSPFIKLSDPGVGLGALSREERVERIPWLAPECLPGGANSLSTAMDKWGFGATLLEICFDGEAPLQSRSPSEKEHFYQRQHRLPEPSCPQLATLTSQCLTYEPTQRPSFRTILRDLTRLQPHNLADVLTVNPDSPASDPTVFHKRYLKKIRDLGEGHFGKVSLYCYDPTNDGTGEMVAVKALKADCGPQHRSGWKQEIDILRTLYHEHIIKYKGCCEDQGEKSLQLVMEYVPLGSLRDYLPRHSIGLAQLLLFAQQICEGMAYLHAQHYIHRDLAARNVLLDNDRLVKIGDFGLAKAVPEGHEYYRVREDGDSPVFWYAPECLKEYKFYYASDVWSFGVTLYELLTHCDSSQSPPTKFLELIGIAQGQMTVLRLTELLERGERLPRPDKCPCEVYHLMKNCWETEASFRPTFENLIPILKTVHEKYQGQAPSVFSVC

Row | SMILES | IC50 (phosphorylation of STAT6) | IC50 (JAK2) | Rat Hepatocyte CLint [1] | IC50 (TYK2) | IC50 (JAK3) | IC50 (JAK1) | microsomal CLint at 1 μM [2]
1 | COC[C@H](C(=O)Nc1cccc2c(-c3nc(Nc4cnn(-c5cccc(CO)c5)c4)ncc3F)c[nH]c12)N1CCN(C)CC1 [Example 67, (R)-N-(3-(5-fluoro-2-((1-(3-(hydroxymethyl)phenyl)-1H-pyrazol-4-yl)amino)pyrimidin-4-yl)-1H-indol-7-yl)-3-methoxy-2-(4-methylpiperazin-1-yl)propanamide] | 20.6 nM | 35 nM | 153.6 μL/min/10^6 cells | 609 nM | 6770 nM | 0.18 nM | 19.5 µL/min/mg
2 | COC[C@H](C(=O)Nc1cccc2c(-c3nc(Nc4ccc5c(c4)C(=O)NCC5)ncc3F)c[nH]c12)N1CCN(C)CC1 [Example 35, (R)-N-(3-(5-fluoro-2-((1-oxo-1,2,3,4-tetrahydroisoquinolin-7-yl)amino)pyrimidin-4-yl)-1H-indol-7-yl)-3-methoxy-2-(4-methylpiperazin-1-yl)propanamide] | 11.3 nM | 199 nM | 2.2 μL/min/10^6 cells | 2040 nM | > 10000 nM | 0.26 nM | 9.2 µL/min/mg
3 | COC[C@H](C(=O)Nc1cccc2c(-c3nc(Nc4ccc5nc[nH]c5c4)ncc3F)c[nH]c12)N1CCN(C)CC1 [Example 45, (R)-N-(3-(2-((1H-benzo[d]imidazol-6-yl)amino)-5-fluoropyrimidin-4-yl)-1H-indol-7-yl)-3-methoxy-2-(4-methylpiperazin-1-yl)propanamide] | 13.4 nM | 131 nM | 2.7 μL/min/10^6 cells | 1290 nM | > 10000 nM | 0.14 nM | 45.2 µL/min/mg
4 | COC[C@H](C(=O)Nc1cccc2c(-c3nc(Nc4cnn(C5CCOC5)c4)ncc3F)c[nH]c12)N1CCN(C)CC1 (single isomer, unassigned; isomer 1) [Example 30] | 10.3 nM | 95 nM | 4.4 μL/min/10^6 cells | 1180 nM | > 10000 nM | 0.15 nM | 13.5 µL/min/mg
5 | COC[C@H](C(=O)Nc1cccc2c(-c3nc(Nc4ccc(CCO)nc4)ncc3F)c[nH]c12)N1CCN(C)CC1 [Example 60, (R)-N-(3-(5-fluoro-2-((6-(2-hydroxyethyl)pyridin-3-yl)amino)pyrimidin-4-yl)-1H-indol-7-yl)-3-methoxy-2-(4-methylpiperazin-1-yl)propanamide] | 17.6 nM | 158 nM | 4.6 μL/min/10^6 cells | 1340 nM | > 10000 nM | 0.25 nM | 7 µL/min/mg
6 | CCOC(=O)c1ccc(Nc2ncc(F)c(-c3c[nH]c4c(NC(=O)[C@@H](COC)N5CCN(C)CC5)cccc34)n2)cn1 [Example 36, ethyl (R)-5-((5-fluoro-4-(7-(3-methoxy-2-(4-methylpiperazin-1-yl)propanamido)-1H-indol-3-yl)pyrimidin-2-yl)amino)picolinate] | 11.5 nM | 491 nM | >300 μL/min/10^6 cells | 4610 nM | > 10000 nM | 0.29 nM | > 300 µL/min/mg
7 | COC[C@H](C(=O)Nc1cccc2c(-c3nc(Nc4cnn(-c5ccccc5CO)c4)ncc3F)c[nH]c12)N1CCN(C)CC1 [Example 53, (R)-N-(3-(5-fluoro-2-((1-(2-(hydroxymethyl)phenyl)-1H-pyrazol-4-yl)amino)pyrimidin-4-yl)-1H-indol-7-yl)-3-methoxy-2-(4-methylpiperazin-1-yl)propanamide] | 15 nM | 180 nM | 17.4 μL/min/10^6 cells | 1660 nM | > 10000 nM | 0.22 nM | 27.9 µL/min/mg
8 | COC[C@H](C(=O)Nc1cccc2c(-c3nc(Nc4ccc5c(c4)NC(=O)C5)ncc3F)c[nH]c12)N1CCN(C)CC1 [Example 37, (R)-N-(3-(5-fluoro-2-((2-oxoindolin-6-yl)amino)pyrimidin-4-yl)-1H-indol-7-yl)-3-methoxy-2-(4-methylpiperazin-1-yl)propanamide] | 11.5 nM | 68 nM | 6.3 μL/min/10^6 cells | 996 nM | 4760 nM | 0.21 nM | 11.7 µL/min/mg
9 | COC[C@H](C(=O)Nc1cccc2c(-c3nc(Nc4ccnc(CCC(=O)OC)c4)ncc3F)c[nH]c12)N1CCN(C)CC1 [Example 15, methyl (R)-3-(4-((5-fluoro-4-(7-(3-methoxy-2-(4-methylpiperazin-1-yl)propanamido)-1H-indol-3-yl)pyrimidin-2-yl)amino)pyridin-2-yl)propanoate] | 7.3 nM | 20 nM | 68.0 μL/min/10^6 cells | 1440 nM | > 10000 nM | 0.19 nM | > 300 µL/min/mg
10 | COC[C@H](C(=O)Nc1cccc2c(-c3nc(Nc4cnc(CCO)c(OC)c4)ncc3F)c[nH]c12)N1CCN(C)CC1 [Example 66, (R)-N-(3-(5-fluoro-2-((6-(2-hydroxyethyl)-5-methoxypyridin-3-yl)amino)pyrimidin-4-yl)-1H-indol-7-yl)-3-methoxy-2-(4-methylpiperazin-1-yl)propanamide] | 20.3 nM | 12 nM | 12.7 μL/min/10^6 cells | 545 nM | > 10000 nM | 0.35 nM | 25 µL/min/mg
11 | COC[C@H](C(=O)Nc1cccc2c(-c3nc(Nc4ccc(C(=O)OC)nc4)ncc3F)c[nH]c12)N1CCN(C)CC1 [Example 12, methyl (R)-5-((5-fluoro-4-(7-(3-methoxy-2-(4-methylpiperazin-1-yl)propanamido)-1H-indol-3-yl)pyrimidin-2-yl)amino)picolinate] | 7.2 nM | 469 nM | 226.4 μL/min/10^6 cells | 3770 nM | > 10000 nM | 0.17 nM | > 300 µL/min/mg
